Data from PubChem BioAssay AID248 (DTP/NCI, 2004).
“And” between values parts separate entries of the source, which are not always exact repeats. Identical values can stand only once. Toxic doses and inconclusive results are not listed. Rule as the data show it: active = T/C of 150% or more; inactive = T/C below 125%.

System: L1210 leukemia ip in BDF1 mice, survival T/C
Assay: NCI In Vivo Anticancer Drug Screen. Data for tumor model L1210 Leukemia (intraperitoneal) in B6D2F1 (BDF1) mice
Conditions: endpoint: mean survival time, higher = longer survival
Procedure, shortened: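 Read-out is survival time, reported as the treated-group measurement over the vehicle-control measurement.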

[1] = dose: 100.0 mg/kg/injection, schedule: Q01DX001 (ip), vehicle: saline
[2] = dose: 200.0 mg/kg/injection, schedule: Q01DX001 (ip), vehicle: saline
[3] = dose: 400.0 mg/kg/injection, schedule: Q01DX001 (ip), vehicle: saline
[4] = dose: 200.0 mg/kg/injection, schedule: Q01DX009 (ip), vehicle: Klucel (hydroxypropylcellulose) (HPC)
[5] = dose: 75.0 mg/kg/injection, schedule: Q01DX009 (ip), vehicle: saline
[6] = dose: 75.0 mg/kg/injection, schedule: Q04DX003 (ip), vehicle: saline
[7] = dose: 150.0 mg/kg/injection, schedule: Q01DX009 (ip), vehicle: saline
[8] = dose: 150.0 mg/kg/injection, schedule: Q04DX003 (ip), vehicle: saline
[9] = dose: 300.0 mg/kg/injection, schedule: Q04DX003 (ip), vehicle: saline
[10] = dose: 100.0 mg/kg/injection, schedule: Q01DX009 (ip), vehicle: Klucel (hydroxypropylcellulose) (HPC)
[11] = dose: 400.0 mg/kg/injection, schedule: Q01DX009 (ip), vehicle: Klucel (hydroxypropylcellulose) (HPC)
[12] = dose: 300.0 mg/kg/injection, schedule: Q01DX009 (ip), vehicle: saline
[13] = dose: 25.0 mg/kg/injection, schedule: Q01DX009 (ip), vehicle: saline
[14] = dose: 50.0 mg/kg/injection, schedule: Q01DX009 (ip), vehicle: saline
[15] = dose: 50.0 mg/kg/injection, schedule: Q04DX003 (ip), vehicle: saline
[16] = dose: 100.0 mg/kg/injection, schedule: Q04DX003 (ip), vehicle: saline
[17] = dose: 100.0 mg/kg/injection, schedule: Q01DX009 (ip), vehicle: saline

Measured: T/C

CN(C)CCOC(=O)c1cccc(CCl)c1
inactive: dose: 45.0 mg/kg/injection, schedule: Q04DX002 (ip), vehicle: saline 106 % of control | dose: 50.0 mg/kg/injection, schedule: Q04DX002 (ip), vehicle: saline 98 % of control | dose: 65.0 mg/kg/injection, schedule: Q04DX002 (ip), vehicle: saline 97 % of control | dose: 100.0 mg/kg/injection, schedule: Q04DX002 (ip), vehicle: saline 97 % of control and 102 % of control | dose: 150.0 mg/kg/injection, schedule: Q04DX002 (ip), vehicle: saline 91 % of control | dose: 200.0 mg/kg/injection, schedule: Q04DX002 (ip), vehicle: saline 94 % of control and 88 % of control | dose: 400.0 mg/kg/injection, schedule: Q04DX002 (ip), vehicle: saline 106 % of control

O=C(NCCSSCCNC(=O)c1ccccc1)c1ccccc1
inactive: [1] 92 % of control | [2] 96 % of control | [3] 100 % of control

CC(=O)Oc1ccc2c3c(ccc2c1)CCCC3
inactive: dose: 50.0 mg/kg/injection, schedule: Q01DX009 (ip), vehicle: Klucel (hydroxypropylcellulose) (HPC) 90 % of control | [4] 90 % of control

Cc1cn(C2CCCO2)c(=O)[nH]c1=O (stereo not given)
inactive: [1] 106 % of control | [2] 101 % of control | [3] 95 % of control

CCCCN(CCCC)C(=S)[S-].CCCCN(CCCC)C(=S)[S-].[Zn]
inactive: dose: 37.5 mg/kg/injection, schedule: Q01DX009 (ip), vehicle: saline 90 % of control | dose: 75.0 mg/kg/injection, schedule: Q01DX001 (ip), vehicle: saline 88 % of control | [5] 90 % of control | [6] 98 % of control | dose: 150.0 mg/kg/injection, schedule: Q01DX001 (ip), vehicle: saline 93 % of control | [7] 86 % of control | [8] 87 % of control | dose: 300.0 mg/kg/injection, schedule: Q01DX001 (ip), vehicle: saline 89 % of control | [9] 93 % of control

O=c1c2ccccc2nc(-c2ccccc2)n1/N=C/c1cccnc1
inactive: [10] 90 % of control | [4] 98 % of control | [11] 104 % of control

O=C1CNc2ccc(Cl)cc2N1
inactive: dose: 100.0 mg/kg/injection, schedule: Q04DX003 (ip), vehicle: acetone 92 % of control | dose: 200.0 mg/kg/injection, schedule: Q04DX003 (ip), vehicle: acetone 95 % of control | dose: 400.0 mg/kg/injection, schedule: Q04DX003 (ip), vehicle: acetone 88 % of control

CC(=O)c1cc(-c2ccc(Cl)c(Cl)c2)nc2c(Cl)cc(Cl)cc12
inactive: [1] 104 % of control | [2] 103 % of control | [3] 103 % of control

COC(=O)C12OCC34C(CC5C(C)=C(O)C(=O)CC5(C)C3C(O)C1O)OC(=O)C(OC(=O)C=C(C)C)C24 (stereo not given)
inactive: dose: 0.78 mg/kg/injection, schedule: Q04DX002 (ip), vehicle: saline with Tween-80 94 % of control | dose: 1.56 mg/kg/injection, schedule: Q04DX002 (ip), vehicle: saline with Tween-80 102 % of control | dose: 3.13 mg/kg/injection, schedule: Q04DX002 (ip), vehicle: saline with Tween-80 105 % of control

O=C1c2cccc3c([N+](=O)[O-])ccc(c23)C(=O)N1NCCO
inactive: dose: 100.0 mg/kg/injection, schedule: Q04DX003 (ip), vehicle: carboxymethylcellulose (CMC) 102 % of control | dose: 200.0 mg/kg/injection, schedule: Q04DX003 (ip), vehicle: carboxymethylcellulose (CMC) 100 % of control

NC(=S)NC(N)=S
inactive: dose: 100.0 mg/kg/injection, schedule: Q04DX003 (ip), vehicle: saline with Tween-80 94 % of control | dose: 200.0 mg/kg/injection, schedule: Q04DX003 (ip), vehicle: saline with Tween-80 96 % of control | dose: 400.0 mg/kg/injection, schedule: Q04DX003 (ip), vehicle: saline with Tween-80 96 % of control

Cc1cc(C(=O)O)c(C)[nH]1
inactive: dose: 25.0 mg/kg/injection, schedule: Q04DX003 (ip), vehicle: Klucel (hydroxypropylcellulose) (HPC) 105 % of control | dose: 50.0 mg/kg/injection, schedule: Q04DX003 (ip), vehicle: Klucel (hydroxypropylcellulose) (HPC) 100 % of control | dose: 75.0 mg/kg/injection, schedule: Q04DX003 (ip), vehicle: Klucel (hydroxypropylcellulose) (HPC) 101 % of control | dose: 100.0 mg/kg/injection, schedule: Q04DX003 (ip), vehicle: Klucel (hydroxypropylcellulose) (HPC) 93 % of control | dose: 200.0 mg/kg/injection, schedule: Q04DX003 (ip), vehicle: Klucel (hydroxypropylcellulose) (HPC) 95 % of control | dose: 400.0 mg/kg/injection, schedule: Q04DX003 (ip), vehicle: Klucel (hydroxypropylcellulose) (HPC) 101 % of control

c1ccc(SCCCCSc2ccccc2)cc1
inactive: [5] 107 % of control | [6] 95 % of control | [7] 90 % of control | [8] 100 % of control | [12] 93 % of control | [9] 97 % of control

C=CCC(N)Cc1ccccc1 (stereo not given)
inactive: dose: 6.25 mg/kg/injection, schedule: Q01DX009 (ip), vehicle: saline 101 % of control | dose: 12.5 mg/kg/injection, schedule: Q01DX009 (ip), vehicle: saline 113 % of control | [13] 101 % of control | dose: 25.0 mg/kg/injection, schedule: Q04DX003 (ip), vehicle: saline 96 % of control | [14] 109 % of control | [15] 105 % of control | [16] 102 % of control

CN(N=O)C(=O)NC1C(CO)OC(n2cnc3c(N)ncnc32)C1O (stereo not given)
inactive: dose: 13.0 mg/kg/injection, schedule: Q01DX001 (ip), vehicle: saline with Tween-80 104 % of control | dose: 20.0 mg/kg/injection, schedule: Q01DX001 (ip), vehicle: saline with Tween-80 106 % of control | dose: 30.0 mg/kg/injection, schedule: Q01DX001 (ip), vehicle: saline with Tween-80 106 % of control | dose: 44.0 mg/kg/injection, schedule: Q01DX001 (ip), vehicle: saline with Tween-80 116 % of control | dose: 67.0 mg/kg/injection, schedule: Q01DX001 (ip), vehicle: saline with Tween-80 117 % of control | dose: 100.0 mg/kg/injection, schedule: Q01DX001 (ip), vehicle: saline with Tween-80 123 % of control | dose: 150.0 mg/kg/injection, schedule: Q01DX001 (ip), vehicle: saline with Tween-80 117 % of control

CCN(C)CCN(C)CC
inactive: [17] 102 % of control | [16] 97 % of control | dose: 200.0 mg/kg/injection, schedule: Q01DX009 (ip), vehicle: saline 104 % of control | dose: 200.0 mg/kg/injection, schedule: Q04DX003 (ip), vehicle: saline 99 % of control | dose: 400.0 mg/kg/injection, schedule: Q01DX009 (ip), vehicle: saline 106 % of control | dose: 400.0 mg/kg/injection, schedule: Q04DX003 (ip), vehicle: saline 99 % of control

O=C(Nc1ccc(Cl)cc1Cl)Nc1ccc(Cl)cc1Cl
inactive: dose: 100.0 mg/kg/injection, schedule: Q04DX002 (ip), vehicle: Klucel (hydroxypropylcellulose) (HPC) 91 % of control | dose: 200.0 mg/kg/injection, schedule: Q04DX002 (ip), vehicle: Klucel (hydroxypropylcellulose) (HPC) 94 % of control

S=C(NCc1ccccc1)NC1CCCCC1
inactive: [13] 97 % of control | [14] 100 % of control | [15] 92 % of control | [17] 96 % of control | [16] 102 % of control

Cc1noc(C)c1[N+](=O)[O-]
inactive: [5] 97 % of control | [7] 94 % of control | [12] 101 % of control

O=c1cc(/C=N\Nc2ccccc2)[nH]c(=O)[nH]1
inactive: dose: 50.0 mg/kg/injection, schedule: Q01DX001 (ip), vehicle: saline 93 % of control | [1] 96 % of control | [2] 93 % of control | [3] 96 % of control

O=C(Nc1ccc(Br)cc1)Oc1ccccc1C(=O)Nc1ccccc1
inactive: [10] 98 % of control | [4] 98 % of control | [11] 88 % of control

CN=C(c1ccc(NC(=O)c2ccc(C(=O)Nc3ccc(C(=NC)N(C)C)cc3)c(Cl)c2)cc1)N(C)C
inactive: dose: 0.94 mg/kg/injection, schedule: Q01DX Z (ip), vehicle: saline 98 % of control | dose: 1.88 mg/kg/injection, schedule: Q01DX Z (ip), vehicle: saline 87 % of control

Cc1cn(C)c2nccnc12
inactive: dose: 25.0 mg/kg/injection, schedule: Q01DX009 (ip), vehicle: water 104 % of control | dose: 50.0 mg/kg/injection, schedule: Q01DX009 (ip), vehicle: water 110 % of control | dose: 100.0 mg/kg/injection, schedule: Q01DX009 (ip), vehicle: water 98 % of control
